What was measured:
Wee1 = molecular target: T1, Wee1 (Homo sapiens, UniProt P30291); test: In vitro enzymatic inhibitory activity, Wee1 kinase (Eurofins, [γ-33P]-ATP filter assay); format: biochemical; details: 10 μM [γ-33P]-ATP, 40 min at room temperature
T1 construct: purchased Eurofins
Description: The experimental tests were conducted at Eurofins, and the results were provided by the company.
After adding the mixed solution of Mg^2+ and ATP, the reaction started and the reaction solution was incubated at room temperature for 40 min. 3% phosphate buffer was added to stop the reaction. 10 μL of the reaction solution was filtered on a continuous filter P30, washed three times with 75 mM phosphate buffer, once with methanol, and 5 minutes each time. After drying, the value was read by scintillation counting method.

P-gp (MDR1) = test: In vitro permeability test in MDR1-MDCK II cells (bidirectional transport); format: in vitro ADME, canine; details: dog
Description: (§1) The study used MDR1-MDCK II cells authorized by Piet Borst laboratory of the Netherlands Cancer Institute, which are a kind of Madin-Darby canine kidney cells transfected with human multi-drug resistance gene (MDR1). The cells can stably express the efflux transporter P glycoprotein (P-gp), so they are suitable for screening P-gp substrates or inhibitors, and predict that the compounds have high efflux barrier permeability such as duodenum, blood-brain barrier, hepatocyte nucleus and renal unit. We used the 5th to 35th generation MDR1-MDCK II cells for permeability study.
(§2) MDR1-MDCK II cells were cultured with α-MEM medium (α-Minimum Essential Media) under the conditions of 37±1° C., 5% CO2 and saturated relative humidity. After that, the cells were inoculated in a BD Transwell-96-well plate with an inoculation density of 2.3×10^5 cells/cm^2, and then the cells were placed in a carbon dioxide incubator for 4-7 days and used for transport experiments. The preparation method of α-MEM medium was as follows: the liquid nutrient base was prepared by dissolving powder (α-MEM powder from Gibco, Cat #: 11900) in pure water, and L-glutamine and NaHCO3 were added. 10% FBS (fetal bovine serum), 1% PS (dual antibiotic) and 1% NEAA were added to make it a complete medium when using.
(§3) Fenoterol and propranolol were tested at a concentration of 2 μM, administered unidirectionally (A-B direction), and duplicated in two wells.
(§4) The solution to be used was pre-incubated in a 37±1° C. water bath for 30 minutes. The dosing solution and the receiving solution were added to the corresponding well positions of the cell plate (75 and 250 μL for each top and bottom well, respectively) to start the bidirectional transport experiment. After loading, the cell plates were placed in an incubator at 37±1° C., 5% CO2 and saturated relative humidity for 150 minutes.
(§5) After vortexing, all samples were centrifuged at 3,220 g for 10 minutes. An appropriate volume of supernatant was transferred to the sample analysis plate, and analyzed by LC/MS/MS. If samples were not analyzed immediately after sealing, they were store at 2-8° C.
(§6) After the transport experiment was completed, the integrity of MDR1-MDCK II cells was tested using Lucifer Yellow Rejection Assay. After incubating the fluorescent yellow solution for 30 minutes, the fluorescent yellow samples were collected, and the relative fluorescence unit (RFU) of the fluorescent yellow in the sample was detected at 425/528 nm (excitation/emission) by the 2e plate reader.
(§7) Semi-quantitative analysis was used for the test products AZD1775 (or the compound of the present invention), the control products fenoterol, propranolol and digoxin. The ratio of the peak area of the analyte to the internal standard was used as the concentration of the reference substance.

P-gp (human MDR1) = test: as above; format: in vitro ADME, canine; details: dog; for Papp A→B at 150 min, 2 μM: A to B, read-out: Penetration rate A to B; for Papp B→A at 150 min, 2 μM: B to A, read-out: Penetration rate B to A
Description: as §1, §2, §3, §4, §5, §6, §7

[1] = Pharmacokinetic evaluation in plasma after single intravenous and single oral administration; format: in vivo; details: mouse, female Balb/c Nude mice
Description: Twelve mice (provided by Lingchang Biotech) were randomly divided into two groups, 6 females in each group, and samples were collected by cross blood collection. […] In the intravenous group, plasma samples were collected at 9 time points of 5 minutes, 15 minutes, 30 minutes, 1 hour, 2 hours, 4 hours, 6 hours, 8 hours, and 24 hours after administration; in the oral group, plasma samples were collected at 8 time points of 15 minutes, 30 minutes, 1 hour, 2 hours, 4 hours, 6 hours, 8 hours, and 24 hours after administration.

[2] = tested on: human colon cancer LoVo cell subcutaneous xenograft tumor; test: In vivo pharmacodynamic study, LoVo subcutaneous xenograft tumor model; design: species or system BALB/c nude mice; details: 40 mg/kg twice daily, after administration for 16 days
Description: (1) In vivo pharmacodynamic study of the compounds on human colon cancer LoVo cell subcutaneous xenograft tumor BALB/c nude mouse model
Experimental method: The selected experimental animal (provided by Shanghai Xipu'er-bikai Experimental Animal Co., Ltd.) were BALB/c nude mice, 6-8 weeks old, weighing 18-22 grams.
Human colon cancer LoVo cells were cultured in monolayer in vitro. The culture conditions were Ham's F-12 medium containing 10% fetal bovine serum, 100 U/mL penicillin, 100 μg/mL streptomycin and 2 mM glutamine, 37° C., 5% CO2 culture. Conventional digestion treatment with trypsin-EDTA was performed twice a week for passaging. When the cell saturation was 80%-90%, the cells were collected, counted, and inoculated. 0.1 mL (10×10^6) LoVo cells were subcutaneously inoculated into the right back of each nude mouse. When the average tumor volume reached 213 mm^3, they were divided into groups and the drug administration was started. Dosage: 40 mg/kg twice daily. The experimental index is to investigate whether the tumor growth is inhibited, delayed or cured. The diameter of the tumor was measured with vernier calipers twice a week. The calculation formula of tumor volume is: V=0.5a×b^2, a and b represent the long and short diameters of the tumor, respectively.
The antitumor efficacy of the compound was evaluated by TGI (%) or relative tumor proliferation rate T/C (%). […]

[3] = tested on: human pancreatic cancer BxPC-3 subcutaneously transplanted tumor; test: In vivo pharmacodynamic study, BxPC-3 subcutaneously transplanted tumor model; design: species or system BALB/c nude mice; details: BxPC-3 xenograft, 25 mg/kg once a day, after administration for 27 days
Description: (2) In vivo pharmacodynamic study of the compound on human pancreatic cancer BxPC-3 BALB/c nude mouse subcutaneously transplanted tumor model
Experimental method: The selected experimental animal was BALB/c nude nude mice, 6-8 weeks old, weighing 18-22 grams.
The 10th generation of BxPC-3 cells were cultured in monolayer in vitro. The culture conditions were RPMI 1640 medium (manufacturer: gibco, article number: 22400-089) containing 10% fetal bovine serum, 100 U/mL penicillin and 100 μg/mL streptomycin, 37° C. 5% CO2 culture, passage was performed for 4 times. The passaging method was conventional digestion treatment with trypsin-EDTA twice a week. When the cell saturation reached 80%-90%, the cells were digested with trypsin-EDTA, counted, and resuspended in PBS at a density of 5×10^7 cells/mL. Each animal was inoculated with 0.1 mL (5×10^6) BxPC-3 cells in the right back. When the average tumor volume reached 153 mm^3, they were randomly divided into groups according to the tumor volume and the drug administration was started. Dosage: 25 mg/kg, once a day.
The experimental index is to investigate whether the tumor growth is inhibited, delayed or cured. The diameter of the tumor was measured with vernier calipers twice a week. The antitumor efficacy of the compound was evaluated by TGI (%) or relative tumor proliferation rate T/C (%). TGI (%) reflects the tumor growth inhibition rate. […]

[4] = tested on: CT26 mouse colon cancer transplanted tumor; test: In vivo anti-tumor efficacy, CT26 colon cancer transplanted tumor model; design: species or system BALB/c nude mice; details: 30 mg/kg twice daily, after administration for 18 days
Description: (3) In vivo anti-tumor efficacy of the compounds on CT26 mouse colon cancer animal transplanted tumor model
Experimental method: The selected experimental animal was BALB/c nude mice, 7 weeks old, weighing 16-20 grams, female.
Cells: Mouse colon cancer CT26 cells (the Cell Bank of Typical Culture Preservation Committee of the Chinese Academy of Sciences) were cultured in monolayer in vitro. The culture conditions were RPMI-1640 medium containing 10% fetal bovine serum and 37° C. 5% CO2 incubator. Conventional digestion treatment with trypsin-EDTA was performed twice a week for passaging. When the cells were in the exponential growth phase and the saturation was 80%-90%, the cells were collected, counted, and inoculated. 0.1 mL DPBS (containing 3×10^5 CT26 cells) was subcutaneously inoculated into the right back of each mouse. When the average tumor volume reached 50-70 mm^3, randomized administration was performed according to tumor volume. Dosage: 30 mg/kg twice daily.
The experimental index is to investigate whether the tumor growth is inhibited, delayed or cured. The diameter of the tumor was measured with vernier calipers twice a week. The antitumor efficacy of the compound was evaluated by TGI (%) or relative tumor proliferation rate T/C (%). TGI (%) reflects the tumor growth inhibition rate.
After the final administration for 18 days, the experimental results are as follows: […]

T1 sequence (P30291 whole entry): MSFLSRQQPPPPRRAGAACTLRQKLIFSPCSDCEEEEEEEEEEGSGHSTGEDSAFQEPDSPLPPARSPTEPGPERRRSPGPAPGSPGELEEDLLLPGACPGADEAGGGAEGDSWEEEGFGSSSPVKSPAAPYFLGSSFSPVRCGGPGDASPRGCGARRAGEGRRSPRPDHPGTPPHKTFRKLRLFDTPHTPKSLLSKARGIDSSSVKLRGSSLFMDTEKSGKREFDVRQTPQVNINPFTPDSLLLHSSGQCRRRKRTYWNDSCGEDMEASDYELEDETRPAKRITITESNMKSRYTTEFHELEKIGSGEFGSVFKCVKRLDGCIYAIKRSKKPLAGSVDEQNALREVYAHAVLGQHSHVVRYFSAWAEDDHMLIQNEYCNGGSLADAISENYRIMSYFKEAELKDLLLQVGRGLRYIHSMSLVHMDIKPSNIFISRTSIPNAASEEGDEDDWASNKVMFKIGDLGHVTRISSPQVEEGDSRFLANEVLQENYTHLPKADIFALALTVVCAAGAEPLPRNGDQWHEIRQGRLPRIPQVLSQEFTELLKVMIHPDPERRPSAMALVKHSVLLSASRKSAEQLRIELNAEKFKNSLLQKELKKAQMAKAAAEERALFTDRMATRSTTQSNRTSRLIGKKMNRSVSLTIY

Compound	IC50 (Wee1) [nM]	efflux ratio at 150 min, 2 μM (P-gp (MDR1))	Papp A→B at 150 min, 2 μM (P-gp (human MDR1)) [×10⁻⁶ cm/s]	Papp B→A at 150 min, 2 μM (P-gp (human MDR1)) [×10⁻⁶ cm/s]	clearance ([1]; 1 mg/kg intravenous, 10 mg/kg oral study, read-out: Clearance rate) [mL/min/kg]	AUC ([1]; 1 mg/kg intravenous, 10 mg/kg oral study, read-out: Concentration integral AUC) [µM·h]	half-life ([1]; 1 mg/kg intravenous, 10 mg/kg oral study, read-out: Half-life T1/2 (converted)) [h]	bioavailability ([1]; po, 10 mg/kg by gavage vs 1 mg/kg intravenous, read-out: Bioavailability F) [%]	TGI (%) [2] [%]	TGI (%) [3] [%]	TGI (%) [4] [%]
CN1CCN(c2ccc(Nc3ncc4c(=O)n5n(c4n3)-c3cccc(n3)C(C)(O)CC/C=C\C5)cc2)CC1 (single isomer, unassigned) [Compound 1]	29	3.82	4.55	17.4	33.5	6.04	1.69	62.4	84.74	73.3	93.38
C=CCn1c(=O)c2cnc(Nc3ccc(N4CCN(C)CC4)cc3)nc2n1-c1cccc(C(C)(C)O)n1 [AZD1775, reference compound]	–	–	2.83	29.3	–	–	–	–	26.73	24.3	66.43

Reference: patent publication US11613545B2, “Macrocyclic compound serving as Wee1 inhibitor and applications thereof” (WUXI BIOCITY BIOPHARMACEUTICS CO., LTD., priority 2017, dated 2023)
